# Results from patent US20240093259A1, “METHODS TO STABILIZE MAMMALIAN CELLS” (THE REGENTS OF THE UNIVERSITY OF CALIFORNIA, priority 2019, published 2024).
# Columns and labels:
# Assay type in all cases: cell-based, Chinese hamster
# [1] = tested on: CHO-SEAP cells; test: Long-term culture SEAP titer (SEAP reporter assay); settings: CHO-SEAP cells under constant 5 μM MTX supplementation, 48 passages
# Method: Cells were cultured in triplicates on 6-well plates. All cells were treated with 5 μM methotrexate (MTX) (MilliporeSigma) for 2 weeks at the beginning of the study (P0-P7) after which only one triplicate per genotype was continued under MTX until the rest of the study. Cells were cultured for 48 passages in total, with 3 passages/week. […]. Protein titer was measured at P0, P7, and P48 using a SEAP reporter assay (Applied Biosystems, ThermoFisher).
# To finally investigate whether DNA-repair optimization has beneficial effects on transgene expression, we grew CHO-SEAP WT and CHO-SEAP CMV::XRCC6 alongside in a long-term culture experiment, and compared SEAP titer at the beginning and the end. Prior to the start of the experiment, cells were cultured in 5 uM methotrexate (MTX) for 1 week to select for high SEAP expression, after which MTX was taken off the growth medium in half of the samples (FIG. 9c). MTX is a competitive inhibitor of dihydrofolate reductase, an essential metabolic enzyme, which is co-expressed with the transgenic SEAP locus (FIG. 9b).
# [2] = tested on: CHO-K1 cells; test: EJ5-GFP double-strand break (DSB) reporter flow cytometry assay in CHO-K1
# Description: FIGS. 2A-2B show GFP-based double-strand break (DSB) reporter system. […] The spacer prevents the promoter from driving GFP expression. Step 2: Transient transfection with the DSB-inducing plasmid (B) induces two DSBs at the 5′ and 3′ ends of the spacer. Successfully transfected cells are identified through far-red fluorescence from miRFP670, fused to Cas9 (B). Step 3: Transfected cells that repair both DSBs properly keep the spacer in place and thus remain GFP-negative. Transfected cells that fail to repair both DSBs in time produce a large sequence loss, moving the GFP in proximity to the promoter, resulting in GFP expression. Thus, the fraction of GFP-positive cells among all transfected cells (far-red positive) serves as a read-out for the inefficiency of DSB repair. […]
# The invention provides a tool to quantify double-strand break (DSB) repair in CHO. […] This reporter system comprises a GFP reading frame, separated from its promoter with a large (2 kb) spacer (FIG. 2A). […] Thus, this tool allows quantitative detection of DSB repair efficiency in living cells and is a powerful read-out for how restoration of individual DSB repair genes improves chromosome stability.
# The EJ5-GFP reporter plasmid (addgene #44026) was linearized with XhoI and transfected into CHO-K1 and CHO-SEAP using electroporation (Neon, Thermo Fisher). […] Impaired DSB repair is detected by positive GFP expression. […]
# [3] = tested on: CHO-K1 cells; test: Karyotype analysis after long-term culture (multi-color FISH chromosome painting); settings: wild-type CHO-K1 cultured under permanent supplementation, 60 passages
# Method: Metaphase spreads were prepared as previously described. Samples were labeled with multi-color DNA fluorescence in situ hybridization (FISH) probes (12× CHamster mFISH probe kit, MetaSystems) for spectral karyotyping as previously described. For karyotypic analyses, the most abundant karyotype across samples was defined as the representative (“main”) karyotype, and deviations from this karyotype were scored as a numerical alteration (whole-chromosomal aneuploidy) and/or structural alteration (inter-chromosomal rearrangement, visible deletion). Structurally aberrant karyotypes (FIG. 8b) were defined as karyotypes showing at least one structural deviation from the representative karyotype. Since unrepaired DSBs can lead to chromosomal aberrations, as mentioned above, we prepared karyotype samples of wildtype and engineered cell lines to analyze chromosomal aberrations on the single cell level. For this, both ATM+ and ATM+ PRKDC+ cell lines were cultured in parallel to the parental wildtype clone for a total of 60 passages (approx. 120 doublings) after which cells were arrested in mitosis, metaphase chromosomal spreads were prepared and stained with chromosome-specific probes (“chromosome painting”) to detect structural and numerical variations. […]
Structure (SMILES),SEAP titer at end of long-term culture [1],"fraction of GFP+ cells (inefficiency of DSB repair) ([2]; CHO-K1 carrying GFP reporter, DSB-inducer transfection, ATM inhibitor 3 μM, FACS 24h after transfection)","GFP+ positive cells (compromised DSB repair) ([2]; CHO-K1 wildtype carrying EJ5-GFP, DSB-inducing plasmid, vs DMSO (Example 2, FIG. 5c))",structural abnormalities in karyotype [3]
"CN(Cc1cnc2nc(N)nc(N)c2n1)c1ccc(C(=O)N[C@@H](CCC(=O)O)C(=O)O)cc1 [MTX, methotrexate]",no reduction in SEAP titer,,,
C[C@@H]1CN(CC(=O)Nc2ccc3c(c2)Cc2cccc(-c4cc(=O)cc(N5CCOCC5)o4)c2S3)C[C@H](C)O1 [KU-60019],,increases the fraction of GFP+ cells,significant increase in GFP+ positive cells,massive increase in structural abnormalities
